Numbers after ± are expanded uncertainties.
Experiment: xn = mol fraction of the nth substance listed
Settings: 101 kPa, Liquid; for mass density: Vibrating tube method; for speed of sound: Sing-around technique in a fixed-path interferometer

Work on NCCNCCN [di(2-aminoethyl)amine] + CCCCO yielded a mass density (303.15 K, x1 = 0.5013) of 887.28 ± 0.12 kg/m3, a mass density (303.15 K, x1 = 0.6067) of 899.921 ± 0.11 kg/m3 and a mass density (303.15 K, x1 = 0.7079) of 911.479 ± 0.11 kg/m3. It also gave a mass density (303.15 K, x1 = 0.8) of 921.305 ± 0.11 kg/m3, a mass density (303.15 K, x1 = 0.8548) of 927.266 ± 0.1 kg/m3 and a mass density (303.15 K, x1 = 0.9075) of 932.668 ± 0.1 kg/m3. For the same compound, the mass density (303.15 K, x1 = 0.9525) was 937.017 ± 0.1 kg/m3, the viscosity (303.15 K, x1 = 0.0517) was 2.576 ± 0.03 mPa·s and the viscosity (303.15 K, x1 = 0.1085) was 3.027 ± 0.035 mPa·s. For the same compound, the viscosity (303.15 K, x1 = 0.153) was 3.256 ± 0.037 mPa·s, the viscosity (303.15 K, x1 = 0.2024) was 3.52 ± 0.04 mPa·s and the viscosity (303.15 K, x1 = 0.2524) was 3.768 ± 0.043 mPa·s. For the same compound, the viscosity (303.15 K, x1 = 0.3079) was 3.919 ± 0.044 mPa·s, the viscosity (303.15 K, x1 = 0.4082) was 4.169 ± 0.047 mPa·s and the viscosity (303.15 K, x1 = 0.5013) was 4.262 ± 0.048 mPa·s. For the same compound, the viscosity (303.15 K, x1 = 0.6067) was 4.302 ± 0.048 mPa·s, the viscosity (303.15 K, x1 = 0.7079) was 4.323 ± 0.049 mPa·s and the viscosity (303.15 K, x1 = 0.8) was 4.335 ± 0.049 mPa·s. For the same compound, the viscosity (303.15 K, x1 = 0.8548) was 4.346 ± 0.049 mPa·s, the viscosity (303.15 K, x1 = 0.9075) was 4.366 ± 0.049 mPa·s and the viscosity (303.15 K, x1 = 0.9525) was 4.422 ± 0.05 mPa·s. The speed of sound (308.15 K, x1 = 0.0517) was 1237.4 ± 0.8 m/s, the speed of sound (308.15 K, x1 = 0.1085) was 1269.3 ± 0.8 m/s and the speed of sound (308.15 K, x1 = 0.153) was 1293.2 ± 0.8 m/s. It also gave a speed of sound (308.15 K, x1 = 0.2024) of 1318.5 ± 0.8 m/s, a speed of sound (308.15 K, x1 = 0.2524) of 1343 ± 0.8 m/s and a speed of sound (308.15 K, x1 = 0.3079) of 1368.6 ± 0.9 m/s. For the same compound, the speed of sound (308.15 K, x1 = 0.4082) was 1412.2 ± 0.9 m/s, the speed of sound (308.15 K, x1 = 0.5013) was 1450.2 ± 0.9 m/s and the speed of sound (308.15 K, x1 = 0.6067) was 1490 ± 0.9 m/s. For the same compound, the speed of sound (308.15 K, x1 = 0.7079) was 1527.2 ± 0.9 m/s, the speed of sound (308.15 K, x1 = 0.8) was 1560.9 ± 0.9 m/s and the speed of sound (308.15 K, x1 = 0.8548) was 1580.1 ± 0.9 m/s. The speed of sound (308.15 K, x1 = 0.9075) was 1598.6 ± 0.9 m/s, the speed of sound (308.15 K, x1 = 0.9525) was 1614.5 ± 0.9 m/s and the mass density (308.15 K, x1 = 0.0517) was 810.286 ± 0.14 kg/m3. For the same compound, the mass density (308.15 K, x1 = 0.1085) was 822.424 ± 0.14 kg/m3, the mass density (308.15 K, x1 = 0.153) was 831.084 ± 0.14 kg/m3 and the mass density (308.15 K, x1 = 0.2024) was 839.988 ± 0.13 kg/m3. It also gave a mass density (308.15 K, x1 = 0.2524) of 848.419 ± 0.13 kg/m3, a mass density (308.15 K, x1 = 0.3079) of 857.059 ± 0.13 kg/m3 and a mass density (308.15 K, x1 = 0.4082) of 871.155 ± 0.12 kg/m3. For the same compound, the mass density (308.15 K, x1 = 0.5013) was 883.174 ± 0.12 kg/m3, the mass density (308.15 K, x1 = 0.6067) was 895.798 ± 0.12 kg/m3 and the mass density (308.15 K, x1 = 0.7079) was 907.33 ± 0.11 kg/m3. It also gave a mass density (308.15 K, x1 = 0.8) of 917.129 ± 0.11 kg/m3, a mass density (308.15 K, x1 = 0.8548) of 923.082 ± 0.11 kg/m3 and a mass density (308.15 K, x1 = 0.9075) of 928.432 ± 0.1 kg/m3. The mass density (308.15 K, x1 = 0.9525) was 932.798 ± 0.1 kg/m3, the viscosity (308.15 K, x1 = 0.0517) was 2.27 ± 0.026 mPa·s and the viscosity (308.15 K, x1 = 0.1085) was 2.622 ± 0.03 mPa·s. The viscosity (308.15 K, x1 = 0.153) was 2.81 ± 0.032 mPa·s, the viscosity (308.15 K, x1 = 0.2024) was 3.027 ± 0.035 mPa·s and the viscosity (308.15 K, x1 = 0.2524) was 3.198 ± 0.037 mPa·s. The viscosity (308.15 K, x1 = 0.3079) was 3.341 ± 0.038 mPa·s, the viscosity (308.15 K, x1 = 0.4082) was 3.524 ± 0.04 mPa·s and the viscosity (308.15 K, x1 = 0.5013) was 3.617 ± 0.041 mPa·s. For the same compound, the viscosity (308.15 K, x1 = 0.6067) was 3.642 ± 0.041 mPa·s, the viscosity (308.15 K, x1 = 0.7079) was 3.671 ± 0.042 mPa·s and the viscosity (308.15 K, x1 = 0.8) was 3.689 ± 0.042 mPa·s. The viscosity (308.15 K, x1 = 0.8548) was 3.712 ± 0.042 mPa·s, the viscosity (308.15 K, x1 = 0.9075) was 3.731 ± 0.042 mPa·s and the viscosity (308.15 K, x1 = 0.9525) was 3.771 ± 0.043 mPa·s. For the same compound, the speed of sound (313.15 K, x1 = 0.0517) was 1220.9 ± 0.8 m/s, the speed of sound (313.15 K, x1 = 0.1085) was 1253.3 ± 0.8 m/s and the speed of sound (313.15 K, x1 = 0.153) was 1277.3 ± 0.8 m/s. It also gave a speed of sound (313.15 K, x1 = 0.2024) of 1302.4 ± 0.8 m/s, a speed of sound (313.15 K, x1 = 0.2524) of 1327.4 ± 0.8 m/s and a speed of sound (313.15 K, x1 = 0.3079) of 1352.7 ± 0.9 m/s. For the same compound, the speed of sound (313.15 K, x1 = 0.4082) was 1396.2 ± 0.9 m/s, the speed of sound (313.15 K, x1 = 0.5013) was 1433.9 ± 0.9 m/s and the speed of sound (313.15 K, x1 = 0.6067) was 1473.9 ± 0.9 m/s. The speed of sound (313.15 K, x1 = 0.7079) was 1510.5 ± 0.9 m/s, the speed of sound (313.15 K, x1 = 0.8) was 1543.6 ± 0.9 m/s and the speed of sound (313.15 K, x1 = 0.8548) was 1563 ± 0.9 m/s. It also gave a speed of sound (313.15 K, x1 = 0.9075) of 1580.1 ± 0.9 m/s, a speed of sound (313.15 K, x1 = 0.9525) of 1594.8 ± 0.9 m/s and a mass density (313.15 K, x1 = 0.0517) of 806.326 ± 0.15 kg/m3. The mass density (313.15 K, x1 = 0.1085) was 818.415 ± 0.14 kg/m3, the mass density (313.15 K, x1 = 0.153) was 827.042 ± 0.14 kg/m3 and the mass density (313.15 K, x1 = 0.2024) was 835.917 ± 0.14 kg/m3. For the same compound, the mass density (313.15 K, x1 = 0.2524) was 844.331 ± 0.13 kg/m3, the mass density (313.15 K, x1 = 0.3079) was 852.959 ± 0.13 kg/m3 and the mass density (313.15 K, x1 = 0.4082) was 867.047 ± 0.12 kg/m3. For the same compound, the mass density (313.15 K, x1 = 0.5013) was 879.057 ± 0.12 kg/m3, the mass density (313.15 K, x1 = 0.6067) was 891.664 ± 0.12 kg/m3 and the mass density (313.15 K, x1 = 0.7079) was 903.173 ± 0.11 kg/m3. For the same compound, the mass density (313.15 K, x1 = 0.8) was 912.964 ± 0.11 kg/m3, the mass density (313.15 K, x1 = 0.8548) was 918.81 ± 0.11 kg/m3 and the mass density (313.15 K, x1 = 0.9075) was 924.23 ± 0.11 kg/m3. For the same compound, the mass density (313.15 K, x1 = 0.9525) was 928.584 ± 0.1 kg/m3.

Reference: the NIST ThermoML archive (doi:10.1016/j.tca.2011.06.003)
